We go through eleven compounds from ChEMBL document CHEMBL3734681, “Sortase A Inhibitors: Recent Advances and Future Perspectives” (J Med Chem, 2015).

Assay [1] can be described thus: Inhibition of Staphylococcus aureus SrtA.
Assay [2] in a line: Inhibition of Bacillus anthracis SrtA.
Assay [3] is described as follows: Inhibition of Staphylococcus aureus SrtA after 2 hrs.
Assay [4] can be described thus: Inhibition of Staphylococcus aureus SrtA by FRET assay.
A short description of assay [5]: Inhibition of Staphylococcus aureus ATCC 6538p recombinant SrtA after 1 hr by spectrometery using Dabcyl-QALPETGEE-Edans as substrate.
The nature of assay [6]: Competitive inhibition of Staphylococcus aureus ATCC 6538p recombinant SrtA by spectrometery using Dabcyl-QALPETGEE-Edans as substrate.
Assay [7] is described as follows: Inhibition of Staphylococcus aureus ATCC 6538p SrtA by spectrometery.

≈ marks a conversion by molar mass, not a printed value.

One may read the IC50 as the concentration needed to halve the response being measured. In assay [1], `Clc1ccccc1-c1nn2c(-c3ccncc3)nnc2s1` showed a concentration for half-maximal inhibition (IC50) of 11.78 µg/mL (≈ 37.5 µM).

Regarding `CN(C)CCC(=O)c1ccc(Cl)c(Cl)c1`, the IC50 in assay [2] is 5.6 µM; in assay [3] it was 15 µM.

In assay [4], `O=C(O)COc1ccccc1C1Nc2cccc3cccc(c23)N1` yielded an IC50 of 15.12 µg/mL (≈ 47.2 µM).

Consider `CC[C@H](CC[C@@H](C)[C@H]1CC[C@H]2[C@@H]3CC[C@@H]4C[C@@H](O[C@@H]5O[C@H](CO)[C@@H](O)[C@H](O)[C@H]5O)CC[C@]4(C)[C@H]3CC[C@]12C)C(C)C`, for which the 50% inhibitory concentration (IC50) in assay [5] was 18.3 µg/mL.

For `CN(C)CCC(=O)c1cccs1`, the IC50 came out at 4.8 µM in assay [2] and 47 µM in assay [3].

As to `COC(=O)/C(=C/c1ccc(OC)cc1)c1ccc(OC)cc1`, the IC50 in assay [5] (read-out: IC50) was determined as 231 µM.

In general, Ki refers to a measure of affinity in units of concentration, obtained from inhibition or displacement. `COc1ccc(/C(C#N)=C/c2cc(OC)ccc2OC)cc1`: in assay [5] (read-out: IC50), the half-inhibitory concentration (IC50) was found to be 9.2 µM. In addition, the Ki in assay [6] turned out to be 6.81 µM.

As for `COc1ccc(/C=C(\C#N)c2ccc(OC)cc2)cc1`, the concentration for half-maximal inhibition (IC50) in assay [5] (read-out: IC50) is 28 µM.

Consider `COc1ccc2cc3[n+](cc2c1OC)CCc1cc2c(cc1-3)OCO2.[Cl-]` [BERBERINE CHLORIDE], for which the IC50 in assay [5] came out at 8.7 µg/mL.

Consider `COc1cc(/C=C/C(=O)CC(=O)/C=C/c2ccc(O)c(OC)c2)ccc1O` [CURCUMIN], for which the IC50 in assay [7] is 13.8 µg/mL (≈ 37.5 µM).

In assay [1], `C=C(C)[C@H](CCC(C)(C)O)Cc1c(O)cc(OC)c2c1O[C@H](c1ccc(O)cc1O)CC2=O` [KURARINOL] showed an IC50 of 48.8 µg/mL (≈ 107 µM).
